# Results as given in patent US6852700B1, “Colostrinin, and uses thereof” (Ludwig Hirzfeld Institute of Immunology and Experimental …, priority 1996, dated 2005).
# Ends that are not written are not given here.
# Experiments:
# mice = experiment: Toxicological studies on mice; format: in vivo; conditions: both after oral and parenteral administration
# [1] = system: lymphocytes isolated from cord blood (CBL); experiment: Induction of cytokines in a culture of lymphocytes isolated from cord blood (CBL); format: cell-based, human; conditions: 20 hours
# Method: Cord blood obtained from the Gynaecological-Obstetric Department of the Specialist District Hospital in Wroclaw. Induction of cytokines by Colostrinin™ in vitro in lymphocytes of cord blood taken 4-6 hours after parturition is effected in the following way.
# The lymphocytes are isolated using a Ficoll-Paque® gradient containing 5.7 g of the component Ficoll 400 and 9.0 g of the component Diatrizoate Sodium per 100 ml. The lymphocytes isolated are suspended in RPMI-1640 culture medium at density of 2×10^6 lymphocyte cells per 1 ml of culture medium. Colostrinin™ at concentration of 1-20 μg/ml or phytohaemagglutinin at concentration of 10 μg/ml is added to the lymphocyte suspension. The culture is incubated for 20 hours at a temperature of 37° C. Then the level of cytokines in the culture fluids is determined by biological methods.
# [2] = system: lymphocytes present in whole blood; experiment: Induction of cytokines in vitro in whole blood cultures; format: cell-based, human
# Method: Induction of cytokines by the polypeptide Colostrinin™ in vitro on blood taken from healthy and sick volunteers taking the pharmaceutical in the form stated in Example III, in cyclic treatment, is carried out as follows.
# Whole blood, containing 10 units per 1 ml of heparin without preservatives is diluted at 1:10 ratio in RPMI 1640 culture medium. Incubation is conducted in the same culture medium without inducers (negative control), or in the presence of 1-100 μg/ml of the polypeptide Colostrinin™ or in the presence of 2 μg/ml blood of phytohaemagglutinin (PHA) and 2 μg/ml blood of lipopolysaccharide (LPS), at a temperature of 37° C., in an atmosphere of 5% carbon dioxide, for 20 hours. Samples with mixture of PHA and LPS are the positive control, as they can stimulate the maximum quantities of cytokines.
# human volunteers = conditions: tablets for sucking, at least 25 μg, at least one daily, about 3 weeks
# [3] = system: patients with Alzheimer's disease; experiment: Treatment of volunteer patients with Alzheimer's disease with tablets for sucking; format: in vivo, human
# Method: (§1) The method of treatment of disorders of the central nervous system was investigated on a group of volunteer patients in the early and moderate stages of Alzheimer's disease. The dosage units were administered in the form of tablets for sucking, between meals, containing 0.00015 g of Colostrinin™ defined in Examples I and III. Firstly, 1 tablet was used daily for a period of 3 weeks, then therapy was interrupted for 2-4 weeks and treatment was repeated, administering 2 tablets daily for 3 weeks. […] This is manifested by an inability to synthesise IFN and also tumour necrosis factor TNF-α. This phenomenon permits quantitative measurements of the action of active agent.
# This was followed by a 3-week pause in treatment (during the pause, the tolerance to the inducer returns to normal). Blood samples for investigating stimulation of IFN-γ by Colostrinin™ and control inducers (PHA-10 μg/ml) were taken every week. The method of performing the tests for induction of cytokines and their quantitative determination were described in previous sections.
# as §1, with “early” for “early and moderate”, “sucking” for “sucking,”, “NP” for “Colostrinin™”, “Example II.” for “Examples I and III.”, “3” for “2-4”
# sarcoma 180 = experiment: Growth of sarcoma 180 in mice; format: in vivo; conditions: intraperitoneal administration in mice
# mice of the NZB line = experiment: Haemolytic anaemia in mice of the NZB line; format: in vivo; conditions: intraperitoneal administration
# [4] = system: mice exposed to gamma radiation; experiment: Radiation sickness in mice exposed to gamma radiation; format: in vivo
# [5] = donor four breast cancer, dose 10 μg/ml
# [6] = donor four breast cancer, dose 100 μg/ml
# [7] = donor one. Alzheimer's disease, dose 10 μg/ml
# [8] = donor one. Alzheimer's disease, dose 100 μg/ml
# [9] = donor six healthy young soldier, dose 1 μg/ml
# [10] = donor six healthy young soldier, dose 10 μg/ml
# [11] = donor six healthy young soldier, dose 100 μg/ml
# [12] = donor three schizophrenia, dose 10 μg/ml
# [13] = donor three schizophrenia, dose 100 μg/ml
# [14] = donor two healthy young soldier, dose 1 μg/ml
# [15] = donor two healthy young soldier, dose 10 μg/ml
# [16] = donor two healthy young soldier, dose 100 μg/ml
# [17] = healthy volunteers, inducer dose 10 μg/ml, 20 hours
# [18] = healthy volunteers, inducer dose 100 μg/ml, 20 hours
# [19] = patients with Alzheimer's disease, inducer dose 10 μg/ml
# [20] = patients with Alzheimer's disease, inducer dose 100 μg/ml
# [21] = early and moderate Alzheimer's disease, 1 tablet daily 3 weeks, pause 2-4 weeks, 2 tablets daily 3 weeks
# [22] = early Alzheimer's disease, NP tablets, 1 daily 3 weeks, pause 3 weeks, 2 daily 3 weeks
substance,measurement,setting,value
Colostrinin ™,LD50,mice,above 1.25 g/kg of body weight
same,Cytokines IFN,[1]; dose 1 μg/ml,38 ± 66 unit/ml
same,Cytokines TNF,[1]; dose 1 μg/ml,16 ± 17 unit/ml
same,Cytokines IFN,[1]; dose 10 μg/ml,78 ± 80 unit/ml
same,Cytokines TNF,[1]; dose 10 μg/ml,37 ± 35 unit/ml
same,Cytokines IFN,[1]; dose 20 μg/ml,89 ± 79 unit/ml
same,Cytokines TNF,[1]; dose 20 μg/ml,59 ± 41 unit/ml
same,"production of cytokines, dose dependence","[2]; concentrations of 1-100 μg/ml, whole blood",stimulates the production of cytokines in a dose-dependent fashion
same,"production of cytokines (IFN-γ, TNF-α, IL-6, IL-10, growth factors)",[2]; cultures of lymphocytes of human peripheral blood (including cord blood),stimulates the production of cytokines
same,Titres of IFN determined by Antivirus biotest,[2]; [5],50 units/ml
same,Titres of IFN determined by ELISA IFN-γ,[2]; [5],307 pg/mL
same,Titres of IFN determined by Antivirus biotest,[2]; [6],70 units/ml
same,Titres of IFN determined by ELISA IFN-γ,[2]; [6],523 pg/mL
same,Titres of IFN determined by Antivirus biotest,[2]; [7],20 units/ml
same,Titres of IFN determined by ELISA IFN-γ,[2]; [7],427 pg/mL
same,Titres of IFN determined by Antivirus biotest,[2]; [8],40 units/ml
same,Titres of IFN determined by ELISA IFN-γ,[2]; [8],400 pg/mL
same,Titres of IFN determined by Antivirus biotest,[2]; [9],100 units/ml
same,Titres of IFN determined by ELISA IFN-γ,[2]; [9],2690 pg/mL
same,Titres of IFN determined by Antivirus biotest,[2]; [10],200 units/ml
same,Titres of IFN determined by ELISA IFN-γ,[2]; [10],3778 pg/mL
same,Titres of IFN determined by Antivirus biotest,[2]; [11],600 units/ml
same,Titres of IFN determined by ELISA IFN-γ,[2]; [11],3941 pg/mL
same,Titres of IFN determined by Antivirus biotest,[2]; [12],6 units/ml
same,Titres of IFN determined by ELISA IFN-γ,[2]; [12],29 pg/mL
same,Titres of IFN determined by Antivirus biotest,[2]; [13],6 units/ml
same,Titres of IFN determined by ELISA IFN-γ,[2]; [13],29 pg/mL
same,Titres of IFN determined by Antivirus biotest,[2]; [14],100 units/ml
same,Titres of IFN determined by ELISA IFN-γ,[2]; [14],1413 pg/mL
same,Titres of IFN determined by Antivirus biotest,[2]; [15],300 units/ml
same,Titres of IFN determined by ELISA IFN-γ,[2]; [15],3402 pg/mL
same,Titres of IFN determined by Antivirus biotest,[2]; [16],300 units/ml
same,Titres of IFN determined by ELISA IFN-γ,[2]; [16],2920 pg/mL
same,Cytokines IFN,[2]; [17],50 ± 59 unit/ml
same,Cytokines TNF,[2]; [17],316 ± 371 unit/ml
same,Cytokines IFN,[2]; [18],344 ± 254 unit/ml
same,Cytokines TNF,[2]; [18],670 ± 560 unit/ml
same,Cytokines IFN,[2]; [19],15 ± 9 unit/ml
same,Cytokines TNF,[2]; [19],182 ± 158 unit/ml
same,Cytokines IFN,[2]; [20],21 ± 14 unit/ml
same,Cytokines TNF,[2]; [20],249 ± 187 unit/ml
same,reactivity to induction of IFN-γ and TNF-α,human volunteers,state of hyporeactivity
same,clinical effect in patients with Alzheimer's disease,[3]; [21],improvement of contact and uplift of mood were observed
same,reactivity to induction of IFN and TNF-α after treatment,[3]; [21],induced a state of hyporeactivity or tolerance
same,time course of hyporeactivity to induction of IFN-γ (FIG. 1),"[3]; patient five, 100 μg tablet every other day for three weeks, then 3-week pause",hyporeactivity appears as early as during the first week
same,growth of sarcoma 180,sarcoma 180,inhibit the growth of sarcoma 180
same,development of haemolytic anaemia,mice of the NZB line,inhibits the development of haemolytic anaemia
same,protection against radiation sickness,[4],protects the animals against radiation sickness
"phytohaemagglutinin [PHA, reference compound]",Cytokines IFN,[1]; PHA dose 10 μg/ml,75 ± 66 unit/ml
same,Cytokines TNF,[1]; PHA dose 10 μg/ml,83 ± 69 unit/ml
"VESYVPLFP [NP, nonapeptide fragment of Colostrinin obtained by chymotrypsin digestion or chemical synthesis]",clinical effect in patients with Alzheimer's disease,[3]; [22],improvement of contact and uplift of mood were observed
same,reactivity to induction of IFN and TNF-α after treatment,[3]; [22],induced a state of hyporeactivity or tolerance
